In patent US4386073A, “Tripeptides acting on the central nervous system and a process for the preparation thereof” (Patentbureau DANUBIA, priority 1979, dated 1983):

The molecules below were run on Haloperidol-induced catalepsy (assay: Inhibition of Haloperidol-induced catalepsy on rats). Conditions: Haloperidol 40 mg/kg s.c., test compound i.v. 120 min later, probit analysis, at the time given.
Type: in vivo, rat (male Wistar)
Method: (1) Inhibition of Haloperidol-induced catalepsy on rats (see J. Delay and P. Deniker: Compt. Rend. Congr. Med. Alenistes Neurologistes, 19, 497, Luxembourg, 1952)
The tests were performed on male Wistar rats weighing 160 to 180 g.
40 mg/kg of 4-(p-chlorophenyl)-1-(3-/p-fluorobenzoyl/-propyl)-piperidin-4-ol (Haloperi dol) were administered subcutaneously into the animals, and 120 minutes after this treatment the animals were checked for the appearance of catalepsy. The rats were divided into groups of 10 animals each, and treated intravenously with TRH or the new TRH analogues. The animals belonging to the control group received physiological saline. The catalepsy-suspending effects of the individual compounds were determined 15, 30, 60, 90 and 120 minutes after the treatment. The animals that had not changed their position for 30 seconds after placing their fore-paw onto a 7 cm high column were regarded as cataleptic.

Structure (SMILES) | Inhibition of Haloperidol catalepsy ED50
CC(C)C[C@H](NC(=O)C1CCCC(=O)N1)C(=O)N1CCC[C@H]1C(N)=O (stereo partly drawn) [Kpc Leu Pro, L-6-ketopiperidine-2-carbonyl-L-leucyl-L-prolinamide] | 23.5 mg/kg
CCC[C@H](NC(=O)C1CCCC(=O)N1)C(=O)N1CCCC[C@H]1C(N)=O (stereo partly drawn) [Kpc Nva HPro, L-6-Ketopiperidine-2-carbonyl-L-norvalyl-L-homoprolinamide] | 35.3 mg/kg
CCC[C@H](NC(=O)C1CCCC(=O)N1)C(=O)N1CCC[C@H]1C(N)=O (stereo partly drawn) [Kpc Nva Pro, L-6-Ketopiperidine-2-carbonyl-L-norvalyl-L-prolinamide] | 10.6 mg/kg

What follows are molecules tested on L-Dopa-induced locomotive activity (assay: Potentiation of locomotive activity induced on mice by L-Dopa). Conditions: Pargyline 40 mg/kg i.p., compound 20 mg/kg i.p., L-Dopa 100 mg/kg i.p., 30 min, percent related to TRH.
Type: in vivo
Method: (2) Potentiation of locomotive activity induced on mice by L-Dopa (see The Thyroid Axis, Drugs and Behavior, p. 116, A. J. Prage Jr., Raven Press, New York, 1974)
The tests were performed on groups of 15 male mice each, weighing 18 to 22 g.
First, the animals were treated intraperitoneally with 40 mg/kg of N-methyl-N-propargyl-benzylamine (Pargyline), and then an intraperitoneal dosage of 20 mg/kg of TRH or a TRH-analogue was introduced, followed by an intraperitoneal dosage of 100 mg/kg of L-Dopa. The locomotive activity of the animals was recorded 30, 60 and 90 minutes after this treatment, and the level of potentiation was expressed in percents related to the results observed with TRH.

Structure (SMILES) | Potentiation of the locomotive effect of L-Dopa, % after 30'
CC(C)C[C@H](NC(=O)C1CCCC(=O)N1)C(=O)N1CCC[C@H]1C(N)=O (stereo partly drawn) [Kpc Leu Pro, L-6-ketopiperidine-2-carbonyl-L-leucyl-L-prolinamide] | 319%
CCC[C@H](NC(=O)C1CCCC(=O)N1)C(=O)N1CCCC[C@H]1C(N)=O (stereo partly drawn) [Kpc Nva HPro, L-6-Ketopiperidine-2-carbonyl-L-norvalyl-L-homoprolinamide] | 63%
CCC[C@H](NC(=O)C1CCCC(=O)N1)C(=O)N1CCC[C@H]1C(N)=O (stereo partly drawn) [Kpc Nva Pro, L-6-Ketopiperidine-2-carbonyl-L-norvalyl-L-prolinamide] | 36%

Same assay, conditions: compound 20 mg/kg i.p., 60 min, percent related to TRH

Structure (SMILES) | Potentiation of the locomotive effect of L-Dopa, % after 60'
CC(C)C[C@H](NC(=O)C1CCCC(=O)N1)C(=O)N1CCC[C@H]1C(N)=O (stereo partly drawn) [Kpc Leu Pro, L-6-ketopiperidine-2-carbonyl-L-leucyl-L-prolinamide] | 80%
CCC[C@H](NC(=O)C1CCCC(=O)N1)C(=O)N1CCCC[C@H]1C(N)=O (stereo partly drawn) [Kpc Nva HPro, L-6-Ketopiperidine-2-carbonyl-L-norvalyl-L-homoprolinamide] | 30%
CCC[C@H](NC(=O)C1CCCC(=O)N1)C(=O)N1CCC[C@H]1C(N)=O (stereo partly drawn) [Kpc Nva Pro, L-6-Ketopiperidine-2-carbonyl-L-norvalyl-L-prolinamide] | 45%

Same assay, conditions: compound 20 mg/kg i.p., 90 min, percent related to TRH

Structure (SMILES) | Potentiation of the locomotive effect of L-Dopa, % after 90'
CC(C)C[C@H](NC(=O)C1CCCC(=O)N1)C(=O)N1CCC[C@H]1C(N)=O (stereo partly drawn) [Kpc Leu Pro, L-6-ketopiperidine-2-carbonyl-L-leucyl-L-prolinamide] | 127%
CCC[C@H](NC(=O)C1CCCC(=O)N1)C(=O)N1CCCC[C@H]1C(N)=O (stereo partly drawn) [Kpc Nva HPro, L-6-Ketopiperidine-2-carbonyl-L-norvalyl-L-homoprolinamide] | 108%
CCC[C@H](NC(=O)C1CCCC(=O)N1)C(=O)N1CCC[C@H]1C(N)=O (stereo partly drawn) [Kpc Nva Pro, L-6-Ketopiperidine-2-carbonyl-L-norvalyl-L-prolinamide] | 65%

Each molecule was assayed on Reserpine hypothermy (assay: Reserpine hypothermy-reversing effect on mice). Conditions: 1 hour after 20 mg/kg of the tripeptide, average of 10 animals.
Type: in vivo
Method: (3) Reserpine hypothermy-reversing effect on mice (see B. M. Askew: Life Sci. 2, 725-730/1963/)
The tests were performed on groups of 10 male mice each, weighing 18 to 22 g. Reserpine was administered into the animals in an intraperitoneal dosage of 5 mg/kg, and 16 hours later the animals were treated with 20 mg/kg of TRH or a tripeptide under examination.
The rectal temperature of the animals was measured prior to the administration of reserpine (marked by "norm." in Table 1), 16 hours after the administration of reserpine (marked by "res." in Table 1), furthermore 1 and 2 hours after the administration of the tripeptide (marked by "obs.time" in Table 1). The data listed in Table 1 are the averages of the temperatures observed on the 10 animals.

Structure (SMILES) | Reserpine hypothermy reversing effect, rectal temperature obs. time 1 h
CC(C)C[C@H](NC(=O)C1CCCC(=O)N1)C(=O)N1CCC[C@H]1C(N)=O (stereo partly drawn) [Kpc Leu Pro, L-6-ketopiperidine-2-carbonyl-L-leucyl-L-prolinamide] | 32.0 °C
CCC[C@H](NC(=O)C1CCCC(=O)N1)C(=O)N1CCCC[C@H]1C(N)=O (stereo partly drawn) [Kpc Nva HPro, L-6-Ketopiperidine-2-carbonyl-L-norvalyl-L-homoprolinamide] | 26.5 °C
CCC[C@H](NC(=O)C1CCCC(=O)N1)C(=O)N1CCC[C@H]1C(N)=O (stereo partly drawn) [Kpc Nva Pro, L-6-Ketopiperidine-2-carbonyl-L-norvalyl-L-prolinamide] | 33.1 °C

Same assay, conditions: 2 hours after 20 mg/kg of the tripeptide, average of 10 animals

Structure (SMILES) | Reserpine hypothermy reversing effect, rectal temperature obs. time 2 h
CC(C)C[C@H](NC(=O)C1CCCC(=O)N1)C(=O)N1CCC[C@H]1C(N)=O (stereo partly drawn) [Kpc Leu Pro, L-6-ketopiperidine-2-carbonyl-L-leucyl-L-prolinamide] | 33.9 °C
CCC[C@H](NC(=O)C1CCCC(=O)N1)C(=O)N1CCCC[C@H]1C(N)=O (stereo partly drawn) [Kpc Nva HPro, L-6-Ketopiperidine-2-carbonyl-L-norvalyl-L-homoprolinamide] | 32.2 °C
CCC[C@H](NC(=O)C1CCCC(=O)N1)C(=O)N1CCC[C@H]1C(N)=O (stereo partly drawn) [Kpc Nva Pro, L-6-Ketopiperidine-2-carbonyl-L-norvalyl-L-prolinamide] | 32.5 °C

Same assay, conditions: 16 hours after reserpine 5 mg/kg i.p., before the tripeptide, average of 10 animals

Structure (SMILES) | Reserpine hypothermy reversing effect, rectal temperature res.
CC(C)C[C@H](NC(=O)C1CCCC(=O)N1)C(=O)N1CCC[C@H]1C(N)=O (stereo partly drawn) [Kpc Leu Pro, L-6-ketopiperidine-2-carbonyl-L-leucyl-L-prolinamide] | 24.5 °C
CCC[C@H](NC(=O)C1CCCC(=O)N1)C(=O)N1CCCC[C@H]1C(N)=O (stereo partly drawn) [Kpc Nva HPro, L-6-Ketopiperidine-2-carbonyl-L-norvalyl-L-homoprolinamide] | 20.7 °C
CCC[C@H](NC(=O)C1CCCC(=O)N1)C(=O)N1CCC[C@H]1C(N)=O (stereo partly drawn) [Kpc Nva Pro, L-6-Ketopiperidine-2-carbonyl-L-norvalyl-L-prolinamide] | 23.9 °C

Same assay, conditions: baseline prior to administration of reserpine, average of 10 animals

Structure (SMILES) | Reserpine hypothermy reversing effect, rectal temperature norm.
CC(C)C[C@H](NC(=O)C1CCCC(=O)N1)C(=O)N1CCC[C@H]1C(N)=O (stereo partly drawn) [Kpc Leu Pro, L-6-ketopiperidine-2-carbonyl-L-leucyl-L-prolinamide] | 36.3 °C
CCC[C@H](NC(=O)C1CCCC(=O)N1)C(=O)N1CCCC[C@H]1C(N)=O (stereo partly drawn) [Kpc Nva HPro, L-6-Ketopiperidine-2-carbonyl-L-norvalyl-L-homoprolinamide] | 36.3 °C
CCC[C@H](NC(=O)C1CCCC(=O)N1)C(=O)N1CCC[C@H]1C(N)=O (stereo partly drawn) [Kpc Nva Pro, L-6-Ketopiperidine-2-carbonyl-L-norvalyl-L-prolinamide] | 36.3 °C

What follows are molecules tested on hexobarbital-induced sleeping (assay: Influencing the duration of sleeping caused by hexobarbital). Conditions: mice, hexobarbital sodium 60 mg/kg i.v., compound 20 mg/kg i.p. 10 min later; control sleeping 38.4 ± 1.36 min.
Type: in vivo
Method: (4) Influencing the duration of sleeping caused by hexobarbital The tests were performed on groups of 10 male mice each. The animals were treated intravenously with 60 mg/kg of hexobarbital sodium ([…]®; Bayer), and 10 minutes later 20 mg/kg of TRH or a tripeptide under examination were administered intraperitoneally into the animals. The sleeping times of the animals were recorded, averages were calculated for the individual groups, and the results were expressed as percents related to the control group.

Structure (SMILES) | Decrease of sleeping period (% related to the control animals), Hexobarb.
CC(C)C[C@H](NC(=O)C1CCCC(=O)N1)C(=O)N1CCC[C@H]1C(N)=O (stereo partly drawn) [Kpc Leu Pro, L-6-ketopiperidine-2-carbonyl-L-leucyl-L-prolinamide] | 37%
CCC[C@H](NC(=O)C1CCCC(=O)N1)C(=O)N1CCCC[C@H]1C(N)=O (stereo partly drawn) [Kpc Nva HPro, L-6-Ketopiperidine-2-carbonyl-L-norvalyl-L-homoprolinamide] | 76%
CCC[C@H](NC(=O)C1CCCC(=O)N1)C(=O)N1CCC[C@H]1C(N)=O (stereo partly drawn) [Kpc Nva Pro, L-6-Ketopiperidine-2-carbonyl-L-norvalyl-L-prolinamide] | 51%

The molecules below were run on ethanol-induced sleeping (assay: Ethanol narcosis). Conditions: mice, ethanol 4.5 g i.p., compound 20 mg/kg i.p. 10 min later; control sleeping 46.9 ± 2.17 min.
Type: in vivo, CFLP (LATI) mice
Method: (5) Ethanol narcosis (see J. M. Cott et al.: J. Pharm. Exp. Ther. 196, 594/1976/) The tests were performed on groups of 20 CFLP (LATI) mice of both sexes, each weighing 18 to 22 g. 4.5 g of ethanol were introduced intraperitoneally into the animals, and 10 minutes later the animals were treated intraperitoneally with 20 mg/kg of the tripeptide under examination. The sleeping periods of the animals were recorded, averages were calculated for the individual groups, and the results were expressed as percents related to the control group.

Structure (SMILES) | Decrease of sleeping period (% related to the control animals), Ethanol
CC(C)C[C@H](NC(=O)C1CCCC(=O)N1)C(=O)N1CCC[C@H]1C(N)=O (stereo partly drawn) [Kpc Leu Pro, L-6-ketopiperidine-2-carbonyl-L-leucyl-L-prolinamide] | 79%
CCC[C@H](NC(=O)C1CCCC(=O)N1)C(=O)N1CCCC[C@H]1C(N)=O (stereo partly drawn) [Kpc Nva HPro, L-6-Ketopiperidine-2-carbonyl-L-norvalyl-L-homoprolinamide] | 35%
CCC[C@H](NC(=O)C1CCCC(=O)N1)C(=O)N1CCC[C@H]1C(N)=O (stereo partly drawn) [Kpc Nva Pro, L-6-Ketopiperidine-2-carbonyl-L-norvalyl-L-prolinamide] | 46%

Each molecule was assayed on TSH (assay: Hormonal activity (TSH effect) on rats). Conditions: 20 mg/kg i.v., plasma TSH by radioimmune assay 15 min after treatment, relative activity, TRH = 100%.
Type: in vivo, rat (male Wistar)
Method: (6) Hormonal activity (TSH effect) on rats
The tests were performed on groups of 7 or 8 male Wistar rats each, weighing 200 g. The animals were treated intravenously with 20 mg/kg of TRH or a tripeptide under examination. The TSH reaction of the animals was evaluated 15 minutes after this treatment, by subjecting the blood plasma to radioimmune assay. The relative activities were calculated by the four-point method using a TPA 101 computer, and the activity of TRH was regarded as 100%.

Structure (SMILES) | TSH effect
CC(C)C[C@H](NC(=O)C1CCCC(=O)N1)C(=O)N1CCC[C@H]1C(N)=O (stereo partly drawn) [Kpc Leu Pro, L-6-ketopiperidine-2-carbonyl-L-leucyl-L-prolinamide] | 2.7%
CCC[C@H](NC(=O)C1CCCC(=O)N1)C(=O)N1CCC[C@H]1C(N)=O (stereo partly drawn) [Kpc Nva Pro, L-6-Ketopiperidine-2-carbonyl-L-norvalyl-L-prolinamide] | 0%
